In series [1] the test system is S. aureus. In words: MIC assay according to CLSI criteria, Example 2, S. aureus strains. Particulars: Staphylococcus aureus, read-out: MIC. It counts as cell-based, Staphylococcus aureus. An excerpt: Chosen for its relevance regarding bacterial skin infections, the methicillin-resistant S. aureus (MRSA) 01 strain was used as the primary test microorganism. This strain is a community-acquired MRSA clinical isolate of USA 300 type, from a skin abscess.
Two-hundred-four other MRSA and methicillin-sensitive S. aureus strains, and 4 Streptococcus pyogenes strains, were also included in the study. These covered fusidic acid- and mupirocin-resistant strains, these two types of resistance being of clinical relevance.
Strains were conserved in Luria Bertani (LB) Broth (S. aureus) or Brain Heart Infusion (BHI) (S. pyogenes) supplemented with glycerol 15% (v/v) at −80° C., and reactivated by isolation on LB (S. aureus) or BHI (S. pyogenes) agar plates. Strains were cultivated in Mueller Hinton (MH) Broth-cation adjusted (S. aureus) or BHI (S. pyogenes). All strains were cultivated aerobically (microaerobically for S. pyogenes strains) at 37° C.
Bacterial cultures were stopped in their exponential growth phase and plates were inoculated with the approximate concentration of 5×10^5 cells per well. Plates were incubated at 37° C. for 18 hours (S. aureus) or 24 hours (S. pyogenes). Optical density at a wavelength of 600 nm was measured at the end of the incubation time.

Series [2] deals with MRSA 01, MRSA 15 (fusidic acid-resistant), MRSA 16 (mupirocin-resistant). In words: Mutational frequency evaluation (spontaneous single-step mutations), Example 1. The format is cell-based, Staphylococcus aureus. Particulars: at MIC×1 (Example 1).
The test system of series [3] is S. aureus. In words: Minimum inhibitory concentration (MIC) assay, Example 1, S. aureus strains. It counts as cell-based. Particulars: Staphylococcus aureus, MRSA, read-out: Mic100 S. aureus. An excerpt: The methicillin-resistant S. aureus (MRSA) 01 strain was used as the primary test microorganism as a representative bacteria commonly found in skin infections. This strain is a community-acquired MRSA clinical isolate of USA 300 type, from a skin abscess.
(§1) Twenty-one other MRSA and methicillin-sensitive S. aureus strains, and 4 Streptococcus pyogenes strains, were also included in the study (Table 2). These covered fusidic acid- and mupirocin-resistant strains, these two types of resistance being of clinical relevance.
(§2) Strains were conserved in Luria Bertani (LB) Broth (S. aureus) or Brain Heart Infusion (BHI) (S. pyogenes) supplemented with glycerol 15% (v/v) at −80° C., and reactivated by isolation on LB (S. aureus) or BHI (S. pyogenes) agar plates. Strains were cultivated in Mueller Hinton (MH) Broth-cation adjusted (S. aureus) supplemented with lysed horse blood 2.5% (v/v) (S. pyogenes). All strains were cultivated at 37° C., aerobically for S. aureus strains.
(§3) Bacterial cultures were stopped in their exponential growth phase and plates were inoculated with the approximate concentration of 10^3 cells per well. Plates were incubated at 37° C. for 18 hours (S. aureus) or 24 hours (S. pyogenes). Optical density at a wavelength of 600 nm was measured at the end of the incubation time. […] Experiments were performed at least as triplicate biological replicates with all strains.

In a further series the test system is S. pyogenes. In words: Minimum inhibitory concentration (MIC) assay, Example 1, S. pyogenes strains. The format is cell-based. Particulars: Streptococcus pyogenes, read-out: Mic100 S. pyogenes. As for the experimental part: as §1, §2, §3
The conditions of series [4]: published literature values; cited from earlier work.

Consider four compounds from patent US12036312B2, “Non-aqueous topical compositions comprising a halogenated salicylanilide” (priority 2016, dated 2024).

≈ marks a conversion by molar mass, not a printed value. Where “and” joins values, the source holds several entries; their conditions need not be identical. Equal entries are not always repeated.

On to `C/C(=C\C(=O)OCCCCCCCCC(=O)O)C[C@@H]1OC[C@H](C[C@@H]2O[C@H]2[C@@H](C)[C@H](C)O)[C@@H](O)[C@H]1O` [Mupirocin, mupirocin], for which the MIC was determined as 0.25 µg/mL (≈ 0.499 µM) in the series with S. aureus [1] (MRSA, strain MRSA 01); 0.25 µg/mL (≈ 0.499 µM) in the series on S. aureus [1] (MRSA, strain MRSA 02); 0.25 µg/mL (≈ 0.499 µM) with S. aureus [1] (MRSA, strain MRSA 03); 0.25 µg/mL (≈ 0.499 µM) in the series with S. aureus [1] (MRSA, strain MRSA 04); 0.125 µg/mL (≈ 0.25 µM) with S. aureus [1] (MRSA, strain MRSA 05); 0.25 µg/mL (≈ 0.499 µM) with S. aureus [1] (MRSA, strain MRSA 06). The MIC with S. aureus [1] (MRSA, strain MRSA 07) is 0.25 µg/mL (≈ 0.499 µM); in the series with S. aureus [1] (MRSA, strain MRSA 09), 0.25 µg/mL (≈ 0.499 µM); in the series with S. aureus [1] (MRSA, strain MRSA 10) it was 0.25 µg/mL (≈ 0.499 µM); in the series with S. aureus [1] (MRSA, strain MRSA 11), 0.5 µg/mL (≈ 0.999 µM); in the series on S. aureus [1] (MRSA, strain MRSA 12), 0.125 µg/mL (≈ 0.25 µM); in the series with S. aureus [1] (MRSA, strain MRSA 13), 0.25 µg/mL (≈ 0.499 µM). For the same compound, the MIC in the series with S. aureus [1] (MRSA, strain MRSA 14) came out at 0.125 µg/mL (≈ 0.25 µM); in the series with S. aureus [1] (MRSA, strain MRSA 15) it was 0.25 µg/mL (≈ 0.499 µM); with S. aureus [1] (MRSA, strain MRSA 18), 0.125 µg/mL (≈ 0.25 µM); in the series on S. aureus [1] (MRSA, strain MRSA 19), 0.25 µg/mL (≈ 0.499 µM); in the series on S. aureus [1] (MRSA, strain MRSA 20) it was 0.25 µg/mL (≈ 0.499 µM); with S. aureus [1] (MRSA, strain MRSA 22), 0.25 µg/mL (≈ 0.499 µM). Also, the MIC with S. aureus [1] (MRSA, strain MRSA 23) is 0.25 µg/mL (≈ 0.499 µM); with S. aureus [1] (MRSA, strain MRSA 24), 0.25 µg/mL (≈ 0.499 µM); in the series with S. aureus [1] (MRSA, strain MRSA 25) it was 0.25 µg/mL (≈ 0.499 µM); with S. aureus [1] (MRSA, strain MRSA 26) it was 0.5 µg/mL (≈ 0.999 µM); in the series on S. aureus [1] (MRSA, strain MRSA 27), 0.25 µg/mL (≈ 0.499 µM); in the series on S. aureus [1] (MRSA, strain MRSA 28), 0.5 µg/mL (≈ 0.999 µM). The MIC was 0.25 µg/mL (≈ 0.499 µM) with S. aureus [1] (MRSA, strain MRSA 29); 0.25 µg/mL (≈ 0.499 µM) with S. aureus [1] (MRSA, strain MRSA 31); 0.25 µg/mL (≈ 0.499 µM) in the series with S. aureus [1] (MRSA, strain MRSA 32); 0.25 µg/mL (≈ 0.499 µM) in the series on S. aureus [1] (MRSA, strain MRSA 33); 0.25 µg/mL (≈ 0.499 µM) with S. aureus [1] (MRSA, strain MRSA 34); 0.5 µg/mL (≈ 0.999 µM) in the series on S. aureus [1] (MRSA, strain MRSA 35). Moreover, the MIC in the series with S. aureus [1] (MRSA, strain MRSA 36) amounted to 0.25 µg/mL (≈ 0.499 µM); with S. aureus [1] (MRSA, strain MRSA 37), 0.25 µg/mL (≈ 0.499 µM); in the series on S. aureus [1] (MRSA, strain MRSA 39), 0.25 µg/mL (≈ 0.499 µM); with S. aureus [1] (MRSA, strain MRSA 40) it was 0.25 µg/mL (≈ 0.499 µM); in the series on S. aureus [1] (MRSA, strain MRSA 75), 0.5 µg/mL (≈ 0.999 µM); in the series with S. aureus [1] (MRSA, strain MRSA 85), 0.25 µg/mL (≈ 0.499 µM). Moreover, the MIC with S. aureus [1] (MRSA, strain MRSA 86) turned out to be 0.25 µg/mL (≈ 0.499 µM); in the series with S. aureus [1] (MRSA, strain MRSA 87), 0.25 µg/mL (≈ 0.499 µM); in the series on S. aureus [1] (MRSA, strain MRSA 88), 0.25 µg/mL (≈ 0.499 µM); with S. aureus [1] (MRSA, strain MRSA 89), 0.25 µg/mL (≈ 0.499 µM); with S. aureus [1] (MRSA, strain MRSA 90) it was 0.25 µg/mL (≈ 0.499 µM); in the series with S. aureus [1] (MRSA, strain MRSA 91), 0.25 µg/mL (≈ 0.499 µM). For the same compound, the MIC in the series with S. aureus [1] (MRSA, strain MRSA 92) amounted to 0.25 µg/mL (≈ 0.499 µM); with S. aureus [1] (MRSA, strain MRSA 93), 0.25 µg/mL (≈ 0.499 µM); in the series on S. aureus [1] (MRSA, strain MRSA 94) it was 0.25 µg/mL (≈ 0.499 µM); in the series with S. aureus [1] (MRSA, strain MRSA 95), 0.25 µg/mL (≈ 0.499 µM); in the series on S. aureus [1] (MRSA, strain MRSA 96), 0.125 µg/mL (≈ 0.25 µM); in the series with S. aureus [1] (MRSA, strain MRSA 97), 0.25 µg/mL (≈ 0.499 µM). Also, the MIC worked out at 0.5 µg/mL (≈ 0.999 µM) in the series with S. aureus [1] (MRSA, strain MRSA 98); 0.5 µg/mL (≈ 0.999 µM) in the series with S. aureus [1] (MRSA, strain MRSA 99); 0.5 µg/mL (≈ 0.999 µM) in the series on S. aureus [1] (MRSA, strain MRSA 100); 0.25 µg/mL (≈ 0.499 µM) in the series on S. aureus [1] (MRSA, strain MRSA 101); 0.25 µg/mL (≈ 0.499 µM) in the series on S. aureus [1] (MRSA, strain MRSA 102); 0.25 µg/mL (≈ 0.499 µM) in the series with S. aureus [1] (MRSA, strain MRSA 103). Further, the MIC came out at 0.25 µg/mL (≈ 0.499 µM) with S. aureus [1] (MRSA, strain MRSA 104); 0.25 µg/mL (≈ 0.499 µM) in the series on S. aureus [1] (MRSA, strain MRSA 105); 0.25 µg/mL (≈ 0.499 µM) in the series with S. aureus [1] (MRSA, strain MRSA 106); 0.25 µg/mL (≈ 0.499 µM) in the series with S. aureus [1] (MRSA, strain MRSA 107); 0.25 µg/mL (≈ 0.499 µM) in the series on S. aureus [1] (MRSA, strain MRSA 108); 0.25 µg/mL (≈ 0.499 µM) with S. aureus [1] (MRSA, strain MRSA 109). In addition, the MIC in the series with S. aureus [1] (MRSA, strain MRSA 110) was 0.125 µg/mL (≈ 0.25 µM); in the series with S. aureus [1] (MRSA, strain MRSA 111), 0.25 µg/mL (≈ 0.499 µM); with S. aureus [1] (MRSA, strain MRSA 112), 0.25 µg/mL (≈ 0.499 µM); in the series with S. aureus [1] (MRSA, strain MRSA 113) it was 0.25 µg/mL (≈ 0.499 µM); in the series with S. aureus [1] (MSSA, strain MSSA 01) it was 0.125 µg/mL (≈ 0.25 µM); in the series with S. aureus [1] (MSSA, strain MSSA 02), 0.125 µg/mL (≈ 0.25 µM). Besides, the MIC in the series with S. aureus [1] (NEWMAN, strain Newman) turned out to be 0.25 µg/mL (≈ 0.499 µM).
On to `Cc1cc(C(C#N)c2ccc(Cl)cc2)c(Cl)cc1NC(=O)c1cc(I)cc(I)c1O` (stereo not drawn) [Closantel, closantel], for which the mutational frequency in series [2] is 2×10^−8.
With `O=C(Nc1ccc(Oc2ccc(Cl)cc2)c(Cl)c1)c1cc(I)cc(I)c1O` [Rafoxanide, rafoxanide], the MIC in the series on S. aureus [3] is 0.8 µg/mL and 1.25 µM; in the series with S. pyogenes, 6.4 µg/mL and 10 µM. For the same compound, the mutational frequency in series [2] is on record as 5×10^−9.
On to `O=C(Nc1cc(Cl)cc(Cl)c1O)c1c(O)c(Cl)cc(Cl)c1Cl` [Oxyclozanide, oxyclozanide], for which the LD50 rats p.o in series [4] is 980 to 3500 mg/kg.
